Columns and labels:
[1] = test system: Adjuvant-induced Edema in Left Legs; assay: adjuvant-induced arthritis in rats, edema in left legs; assay type: in vivo, female Wistar rats
Experimental: (§1) Eight female Wistar rats in each group, weighing 140-200 g were used. The arthritis was induced by intradermal injection of Mycobacterium butyricum suspended in liquid paraffin (0.6 mg/0.1 ml) as the adjuvant to tail. The change in volume of both legs due to the formation of edema was measured 12, 16 and 19 days after the adjuvant challenge. In addition, a severity of the secondary inflammation observed in auricles, paws, legs and tail was graded into the degrees of 0-4.

[2] = test system: Adjuvant-induced Secondary Inflammation; assay: adjuvant-induced arthritis in rats, secondary inflammation; assay type: in vivo, female Wistar rats
Experimental: as §1

[3] = test system: Adjuvant-induced Edema in Right Legs; assay: adjuvant-induced arthritis in rats, edema in right legs; assay type: in vivo, female Wistar rats
Experimental: as §1

rats and mice = assay: toxicological studies (acute, subacute, chronic); assay type: in vivo; conditions: acute (several routes), subacute (oral, one month), chronic (oral, six months)
[4] = test system: Arthus reaction (type III allergic reaction); conditions: own earlier publication; cited from earlier work
acute toxicity in rats = conditions: rat, in vivo
acute toxicity in mice = conditions: mouse, in vivo
[5] = disclosed in earlier patents; cited from earlier work
[6] = disclosed in earlier patents; cited from earlier work; remark: listed apart in the source
[7] = test system: adjuvant-induced experimental arthritis; assay: adjuvant-induced experimental arthritis in rats (overall); assay type: in vivo; conditions: oral, 20 mg/kg once or 10 mg/kg twice every day
Experimental: as §1

[8] = test system: type I (immediate type) allergic reaction; conditions: own earlier publications; cited from earlier work
[9] = 10 × 2 mg/kg/day p.o., 12th day
[10] = 10 × 2 mg/kg/day p.o., 16th day
[11] = 10 × 2 mg/kg/day p.o., 19th day

For `C[C@]12CCC(=O)C=C1CC[C@@H]1[C@@H]2[C@@H](O)C[C@@]2(C)[C@H]1CC[C@]2(O)C(=O)CO` [Hydrocortisone, reference compound], the “Inhibition of edema in left legs” value ([1]; 5 mg/kg/day p.o., 12th day) was 57.0%, the “Inhibition of edema in left legs” value ([1]; 5 mg/kg/day p.o., 16th day) was 53.1% and the “Inhibition of edema in left legs” value ([1]; 5 mg/kg/day p.o., 19th day) was 54.7%. The “Inflammation Score” value ([2]; 5 mg/kg/day p.o., 16th day, control 11.8) was 8.1, the “Inflammation Score” value ([2]; 5 mg/kg/day p.o., 19th day, control 17.0) was 9.3 and the “Inhibition of edema in right legs” value ([3]; 5 mg/kg/day p.o., 12th day) was 90.9%. The “Inhibition of edema in right legs” value ([3]; 5 mg/kg/day p.o., 16th day) was 60.1% and the “Inhibition of edema in right legs” value ([3]; 5 mg/kg/day p.o., 19th day) was 57.8%.

For `CC(C)C(=O)c1c(C(C)C)nn2ccccc12` [KC-404, 3-isobutyryl-2-isopropylpyrazalo[1,5-a]pyridine], the toxicity (rats and mice) is given as “low in toxicity”, the “effect on the Arthus reaction (type III allergic reaction)” value [4] is given as “inhibits” and the LD50 (acute toxicity in rats; ip, Female) is given as 419 mg/kg. It also gave an LD50 (acute toxicity in rats; ip, Male) of 500 mg/kg, an LD50 (acute toxicity in rats; iv, Female) of 42.5 mg/kg and an LD50 (acute toxicity in rats; iv, Male) of 43.2 mg/kg. The LD50 (acute toxicity in rats; po, Female) was 1400 mg/kg, the LD50 (acute toxicity in rats; sc, Female) was 1370 mg/kg and the LD50 (acute toxicity in rats; sc, Male) was 1450 mg/kg. The “Inhibition of edema in left legs” value ([1]; 20 mg/kg/day p.o., 12th day) was 71.7%, the “Inhibition of edema in left legs” value ([1]; 20 mg/kg/day p.o., 16th day) was 79.9% and the “Inhibition of edema in left legs” value ([1]; 20 mg/kg/day p.o., 19th day) was 61.1%. For the same molecule, the “Inhibition of edema in left legs” value [1, 9] was 50.2%, the “Inhibition of edema in left legs” value [1, 10] was 28.6% and the “Inhibition of edema in left legs” value [1, 11] was 41.9%. It also gave an LD50 (acute toxicity in mice; ip, Female) of 500 mg/kg, an LD50 (acute toxicity in mice; ip, Male) of 460 mg/kg and an LD50 (acute toxicity in mice; iv, Female) of 146 mg/kg. The LD50 (acute toxicity in mice; iv, Male) was 160 mg/kg, the LD50 (acute toxicity in mice; po, Female) was 1860 mg/kg and the LD50 (acute toxicity in mice; po, Male) was 1880 mg/kg. For the same molecule, the LD50 (acute toxicity in mice; sc, Female) was 3100 mg/kg, the LD50 (acute toxicity in mice; sc, Male) was 3000 mg/kg and the cerebral vasodilating effect [5] was “Cerebral vasodilating”. The bronchodilating effect [6] was “bronchodilating”, the “inhibition of the production of adjuvant-induced experimental arthritis” value [7] was “markedly inhibits” and the “Inflammation Score” value ([2]; 20 mg/kg/day p.o., 16th day, control 11.8) was 6.6. The “Inflammation Score” value ([2]; 20 mg/kg/day p.o., 19th day, control 17.0) was 10.3, the “Inflammation Score” value ([2]; 10 × 2 mg/kg/day p.o., 16th day, control 11.8) was 9.0 and the “Inflammation Score” value ([2]; 10 × 2 mg/kg/day p.o., 19th day, control 17.0) was 11.4. The “Inhibition of edema in right legs” value ([3]; 20 mg/kg/day p.o., 12th day) was 44.4%, the “Inhibition of edema in right legs” value ([3]; 20 mg/kg/day p.o., 16th day) was 80.8% and the “Inhibition of edema in right legs” value ([3]; 20 mg/kg/day p.o., 19th day) was 53.1%. The “Inhibition of edema in right legs” value [3, 9] was 19.8%, the “Inhibition of edema in right legs” value [3, 10] was 56.6% and the “Inhibition of edema in right legs” value [3, 11] was 39.9%. For the same molecule, the “effect on type I allergic reaction” value [8] was “inhibitory effect”.

— patent US4735954A, “Anti-rheumatic agent” (priority 1985, dated 1988)
